# Experimental data: patent US20220257698A1, “ANGIOTENSIN TYPE 2 (AT2) RECEPTOR AGONISTS FOR USE IN THE TREATMENT OF CANCER” (LANTHIOPEP B.V., priority 2019, published 2022)
# Test system: colon carcinoma PDX model Co9689A
# Assay: KcAng(1-7) on growth of colon carcinoma PDX Co9689A in mice
# Format: in vivo, NMRI nu/nu mice (human PDX)
# Conditions: for T/C (treated tumor volume as percent of vehicle control): day 28 (day 41 of study)
# Experimental: In vivo studies were conducted at EPO GmbH Berlin. Large studies (FIG. 1A, 2, 3, 4, 5) comprised 3 groups of 10 mice/group and 5 animals as reserve, as outlined in Table 1. Smaller studies (FIG. 1B, 1C, 1D) comprised 2 groups of mice of 3 mice per group. The animals were allocated to the various treatment groups (e.g. 0.2 μg/kg and 30 μg/kg) with a maximum of 10 animals per group. […] The groups received subcutaneous (s.c.) drug injection (for max. 28 days) as outlined in the Table 1.
# NMRI nu/nu mice were used in this study. The animals were female at age of 6 to 8 weeks. The respective PDX tumors were inoculated subcutaneously (s.c.), and the tumors were grown to achieve palpable tumor sizes before start of the respective treatments. The PDX included breast (MaCa4151), colon (Co9689A), head & neck (HN10309), lung (Lu7433) and ovarian (OvCa13329) cancer (Table 2).
# Treatment with KcAng(1-7) was started with palpable tumors after the randomization of animals regarding tumor volume. KcAng(1-7) was applied s.c. by daily injections at […] or 30 μg/kg dose for a maximum of 28 days (or earlier as defined by the humane end point for the study).
# KcAng(1-7) was prepared as follows: The compounds was suspended in sterile PBS resulting in a clear solution. The remains of this formulation were stored at 4° C.
# Tumor growth stimulatory or inhibitory activity of the KcAng(1-7) was evaluated by determination of tumor volumes (TV). During the study, tumor volumes and body weight were measured twice a week, and the ratio of the mean tumor volumes between the compound-treated group and the vehicle-treated group (T/C) was calculated.
# Tumor volume=(tumor width)×(tumor width)×(tumor length)+2
# T/C=T÷C • T: Mean estimated tumor volume of the compound-treated group • C: Mean estimated tumor volume of the vehicle-treated group
# [1] = Gr. B 0.2 μg/kg/d s.c., Meas. 1
# [2] = Gr. B 0.2 μg/kg/d s.c., Meas. 2
# [3] = Gr. B 0.2 μg/kg/d s.c., Meas. 3
# [4] = Gr. B 0.2 μg/kg/d s.c., Meas. 4
# [5] = Gr. B 0.2 μg/kg/d s.c., Meas. 5
# [6] = Gr. B 0.2 μg/kg/d s.c., Meas. 6
# [7] = Gr. B 0.2 μg/kg/d s.c., Meas. 7
# [8] = Gr. B 0.2 μg/kg/d s.c., Meas. 8
# [9] = Gr. B 0.2 μg/kg/d s.c., Meas. 9 (day 28, day 41 of study)
# [10] = Gr. C 30 μg/kg/d s.c., Meas. 9 (day 28, day 41 of study)
substance,measurement,setting,value
Lys-Asp-Arg-Val-Abu/Ala-Ile-His-Abu/Ala (KDRVAIHA; not fully specified; cyclic thioether (Abu/Ala bridge); VARIANT (5)..(5) /replace=“Abu”; VARIANT (8)..(8) /replace=“Abu”; SITE (1)..(8) /note=“Variant residues given in the sequence have no preference with respect to those in the annotations for variant positions”) [KcAng(1-7)],T/C (treated tumor volume as percent of vehicle control),0.2 μg/kg,58%
same,T/C (treated tumor volume as percent of vehicle control),30 μg/kg,45%
same,effect on tumor growth,"0.2 and 30 μg/kg, 28 days",statistically significant and dose dependent reduction in tumor growth
same,RTV Mean,[1],1
same,RTV Median,[1],1
same,T/C,[1],99.5%
same,Tumor Vol. Mean,[1],0.093 cm^3
same,Tumor Vol. Median,[1],0.09 cm^3
same,RTV Mean,[2],1.2
same,RTV Median,[2],1.2
same,T/C,[2],90.3%
same,Tumor Vol. Mean,[2],0.107 cm^3
same,Tumor Vol. Median,[2],0.108 cm^3
same,RTV Mean,[3],1.4
same,RTV Median,[3],1.4
same,T/C,[3],87.4%
same,Tumor Vol. Mean,[3],0.132 cm^3
same,Tumor Vol. Median,[3],0.126 cm^3
same,RTV Mean,[4],2
same,RTV Median,[4],1.9
same,T/C,[4],87.1%
same,Tumor Vol. Mean,[4],0.188 cm^3
same,Tumor Vol. Median,[4],0.139 cm^3
same,RTV Mean,[5],2.7
same,RTV Median,[5],2.6
same,T/C,[5],84.6%
same,Tumor Vol. Mean,[5],0.252 cm^3
same,Tumor Vol. Median,[5],0.234 cm^3
same,RTV Mean,[6],2.8
same,RTV Median,[6],2.7
same,T/C,[6],80.7%
same,Tumor Vol. Mean,[6],0.267 cm^3
same,Tumor Vol. Median,[6],0.238 cm^3
same,RTV Mean,[7],3.2
same,RTV Median,[7],2.8
same,T/C,[7],71.6%
same,Tumor Vol. Mean,[7],0.272 cm^3
same,Tumor Vol. Median,[7],0.214 cm^3
same,RTV Mean,[8],2
same,RTV Median,[8],1.9
same,T/C,[8],58.6%
same,Tumor Vol. Mean,[8],0.192 cm^3
same,Tumor Vol. Median,[8],0.178 cm^3
same,RTV Mean,[9],2.7
same,RTV Median,[9],2.5
same,T/C,[9],58.1%
same,Tumor Vol. Mean,[9],0.257 cm^3
same,Tumor Vol. Median,[9],0.219 cm^3
same,RTV Mean,"Gr. C 30 μg/kg/d s.c., Meas. 1",1
same,RTV Median,"Gr. C 30 μg/kg/d s.c., Meas. 1",1
same,T/C,"Gr. C 30 μg/kg/d s.c., Meas. 1",99.5%
same,Tumor Vol. Mean,"Gr. C 30 μg/kg/d s.c., Meas. 1",0.093 cm^3
same,Tumor Vol. Median,"Gr. C 30 μg/kg/d s.c., Meas. 1",0.097 cm^3
same,RTV Mean,"Gr. C 30 μg/kg/d s.c., Meas. 2",1.2
same,RTV Median,"Gr. C 30 μg/kg/d s.c., Meas. 2",1.2
same,T/C,"Gr. C 30 μg/kg/d s.c., Meas. 2",91.5%
same,Tumor Vol. Mean,"Gr. C 30 μg/kg/d s.c., Meas. 2",0.108 cm^3
same,Tumor Vol. Median,"Gr. C 30 μg/kg/d s.c., Meas. 2",0.105 cm^3
same,RTV Mean,"Gr. C 30 μg/kg/d s.c., Meas. 3",1.3
same,RTV Median,"Gr. C 30 μg/kg/d s.c., Meas. 3",1.3
same,T/C,"Gr. C 30 μg/kg/d s.c., Meas. 3",80.9%
same,Tumor Vol. Mean,"Gr. C 30 μg/kg/d s.c., Meas. 3",0.122 cm^3
same,Tumor Vol. Median,"Gr. C 30 μg/kg/d s.c., Meas. 3",0.111 cm^3
same,RTV Mean,"Gr. C 30 μg/kg/d s.c., Meas. 4",1.7
same,RTV Median,"Gr. C 30 μg/kg/d s.c., Meas. 4",1.5
same,T/C,"Gr. C 30 μg/kg/d s.c., Meas. 4",72.1%
same,Tumor Vol. Mean,"Gr. C 30 μg/kg/d s.c., Meas. 4",0.156 cm^3
same,Tumor Vol. Median,"Gr. C 30 μg/kg/d s.c., Meas. 4",0.125 cm^3
same,RTV Mean,"Gr. C 30 μg/kg/d s.c., Meas. 5",2.2
same,RTV Median,"Gr. C 30 μg/kg/d s.c., Meas. 5",2.3
same,T/C,"Gr. C 30 μg/kg/d s.c., Meas. 5",68.6%
same,Tumor Vol. Mean,"Gr. C 30 μg/kg/d s.c., Meas. 5",0.205 cm^3
same,Tumor Vol. Median,"Gr. C 30 μg/kg/d s.c., Meas. 5",0.184 cm^3
same,RTV Mean,"Gr. C 30 μg/kg/d s.c., Meas. 6",2.5
same,RTV Median,"Gr. C 30 μg/kg/d s.c., Meas. 6",2.4
same,T/C,"Gr. C 30 μg/kg/d s.c., Meas. 6",72.5%
same,Tumor Vol. Mean,"Gr. C 30 μg/kg/d s.c., Meas. 6",0.24 cm^3
same,Tumor Vol. Median,"Gr. C 30 μg/kg/d s.c., Meas. 6",0.199 cm^3
same,RTV Mean,"Gr. C 30 μg/kg/d s.c., Meas. 7",3
same,RTV Median,"Gr. C 30 μg/kg/d s.c., Meas. 7",2.8
same,T/C,"Gr. C 30 μg/kg/d s.c., Meas. 7",75.6%
same,Tumor Vol. Mean,"Gr. C 30 μg/kg/d s.c., Meas. 7",0.287 cm^3
same,Tumor Vol. Median,"Gr. C 30 μg/kg/d s.c., Meas. 7",0.213 cm^3
same,RTV Mean,"Gr. C 30 μg/kg/d s.c., Meas. 8",2.2
same,RTV Median,"Gr. C 30 μg/kg/d s.c., Meas. 8",1.9
same,T/C,"Gr. C 30 μg/kg/d s.c., Meas. 8",63.3%
same,Tumor Vol. Mean,"Gr. C 30 μg/kg/d s.c., Meas. 8",0.208 cm^3
same,Tumor Vol. Median,"Gr. C 30 μg/kg/d s.c., Meas. 8",0.155 cm^3
same,RTV Mean,[10],2.1
same,RTV Median,[10],1.8
same,T/C,[10],45.3%
same,Tumor Vol. Mean,[10],0.201 cm^3
same,Tumor Vol. Median,[10],0.134 cm^3
same,retarded tumor growth,colon carcinoma PDX upon treatment as in Example 1,~40%
